How the values were obtained:
A2058 (Melanoma) = assay: Bliss excess, mean over the matrix (fraction); higher = more synergy
In short: (§1)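 Cell lines grown in DMEM/F12 or RPMI with 10% FBS were plated in 1536-well plates and held 24 hours at 37°C, 5% CO2 before 72 hours of exposure to two-drug dose matrices, with DMSO typically at 0.2%. CellTiter-Glo 2.0 luminescence gave viability, which was converted to inhibition. Vehicle wells were set to 0 and blank wells to 1. Combination Emax is the second-highest inhibition in the matrix, and Bliss excess is the observed combination effect minus the expected EA + EB − EA·EB, where EA and EB are the single-agent effects.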

[1] = test system: CAL-120 (Breast Carcinoma); assay: as above
In short: as §1

[2] = test system: CAL-62 (Thyroid Gland Carcinoma); assay: as above
In short: as §1

[3] = test system: GP5d (Colorectal Carcinoma); assay: as above
In short: as §1

[4] = test system: HCT-15 (Colorectal Carcinoma); assay: as above
In short: as §1

[5] = test system: HEC-1 (Endometrial Carcinoma); assay: as above
In short: as §1

[6] = test system: HSC-39 (Gastric Carcinoma); assay: as above
In short: as §1

IST-MES1 (Mesothelioma) = assay: as above
In short: as §1

[7] = test system: KE-37 (T-Lymphoblastic Leukemia); assay: as above
In short: as §1

[8] = test system: LXF-289 (Lung Adenocarcinoma); assay: as above
In short: as §1

[9] = test system: MKN45 (Gastric Carcinoma); assay: as above
In short: as §1

[10] = test system: NCI-H23 (Lung Adenocarcinoma); assay: as above
In short: as §1

[11] = test system: RCM-1 (Colorectal Carcinoma); assay: as above
In short: as §1

[12] = test system: RERF-LC-Sq1 (Squamous Cell Lung Carcinoma); assay: as above
In short: as §1

[13] = test system: RKN (Other Solid Carcinomas); assay: as above
In short: as §1

SF539 (Glioblastoma) = assay: as above
In short: as §1

WM793B (Melanoma) = assay: as above
In short: as §1

[14] = test system: CAL-120 (Breast Carcinoma); assay: combination Emax (second highest fraction inhibited in the dose matrix, 72 h); higher = more inhibition; extreme values may be limits of the assay
In short: as §1

[15] = test system: LB996-RCC (Kidney Carcinoma); assay: as above
In short: as §1

[16] = test system: RERF-LC-Sq1 (Squamous Cell Lung Carcinoma); assay: as above
In short: as §1
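For Bliss excess, mean over the matrix in this document: after 72 h of two-drug dosing.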

| SMILES | Bliss excess (A2058 (Melanoma)) | Bliss excess [1] | Bliss excess [2] | Bliss excess [3] | Bliss excess [4] | Bliss excess [5] | Bliss excess [6] | Bliss excess (IST-MES1 (Mesothelioma)) | Bliss excess [7] | Bliss excess [8] | Bliss excess [9] | Bliss excess [10] | Bliss excess [11] | Bliss excess [12] | Bliss excess [13] | Bliss excess (SF539 (Glioblastoma)) | Bliss excess (WM793B (Melanoma)) | combination Emax [14] | combination Emax [15] | combination Emax [16] |
| --- | --- | --- | --- | --- | --- | --- | --- | --- | --- | --- | --- | --- | --- | --- | --- | --- | --- | --- | --- | --- |
| CN(C)CCCOc1ccc(-c2ccc3ncc4c(c3c2)n(C2CCOCC2)c(=O)n4C)cn1 [AZD0156] + O=C(c1cc(Cc2n[nH]c(=O)c3ccccc23)ccc1F)N1CCN(C(=O)C2CC2)CC1 [Olaparib] (first compound max 3 µM, partner max 3 µM) | 0.151 | 0.0047 | 0.0939 | 0.0682 | 0.007 | -0.0173 | 0.128 | -0.0141 | 0.0951 | 0.092 | -0.0028 | 0.0049 | 0.003 | 0.0396 | 0.0042 | 0.133 | 0.0206 | 0.29 | 0.38 | 0.418 |
| C=CCn1c(=O)c2cnc(Nc3ccc(N4CCN(C)CC4)cc3)nc2n1-c1cccc(C(C)(C)O)n1 [AZD1775] + C1CN(CCC1(C(=O)N[C@@H](CCO)C2=CC=C(C=C2)Cl)N)C3=NC=NC4=C3C=CN4 [Capivasertib] (first compound max 3 µM, partner max 3 µM) | 0.0217 | -0.0265 | 0.0089 | -0.0274 | 0.0159 | -0.0424 | 0.0067 | -0.0056 | -0.0132 | -0.0046 | -0.0736 | -0.0135 | 0.0141 | -0.0483 | -0.0476 | -0.0878 | -0.0157 | 0.727 | 0.783 | 0.844 |
| C=CCn1c(=O)c2cnc(Nc3ccc(N4CCN(C)CC4)cc3)nc2n1-c1cccc(C(C)(C)O)n1 [AZD1775] + C[C@@H]1COCCN1C2=NC(=NC(=C2)C3(CC3)[S@](=N)(=O)C)C4=C5C=CNC5=NC=C4 [AZD6738] (first compound max 1 µM, partner max 10 µM) | 0.0553 | 0.0021 | -0.061 | 0.0418 | 0.0483 | 0.0694 | 0.0459 | -0.025 | 0.0552 | 0.0266 | -0.0711 | 0.0238 | 0.0014 | 0.0211 | -0.0029 | 0.0027 | -0.034 | 0.583 | 0.84 | 0.859 |
| C=CCn1c(=O)c2cnc(Nc3ccc(N4CCN(C)CC4)cc3)nc2n1-c1cccc(C(C)(C)O)n1 [AZD1775] + O=C(c1cc(Cc2n[nH]c(=O)c3ccccc23)ccc1F)N1CCN(C(=O)C2CC2)CC1 [Olaparib] (first compound max 1 µM, partner max 10 µM) | -0.0049 | 0.0027 | 0.0017 | 0.0252 | -0.0674 | 0.0039 | 0.0277 | -0.0409 | 0.0513 | -0.0247 | -0.005 | -0.035 | -0.0861 | -0.0211 | -0.0138 | 0.0258 | -0.0236 | 0.396 | 0.845 | 0.675 |
| CCN(CCO)CCCOc1ccc2c(Nc3cc(CC(=O)Nc4cccc(F)c4)[nH]n3)ncnc2c1 [AZD2811] + C=CCn1c(=O)c2cnc(Nc3ccc(N4CCN(C)CC4)cc3)nc2n1-c1cccc(C(C)(C)O)n1 [AZD1775] (first compound max 1 µM, partner max 1 µM) | -0.0059 | -0.0576 | 0.0127 | 0.08 | 0.156 | 0.0124 | 0.0224 | -0.04 | 0.0353 | -0.012 | -0.0302 | -0.0005 | 0.0398 | -0.0102 | -0.0017 | 0.0972 | 0.02 | 0.368 | 0.842 | 0.68 |
| CCN(CCO)CCCOc1ccc2c(Nc3cc(CC(=O)Nc4cccc(F)c4)[nH]n3)ncnc2c1 [AZD2811] + C[C@@H]1COCCN1C2=NC(=NC(=C2)C3(CC3)[S@](=N)(=O)C)C4=C5C=CNC5=NC=C4 [AZD6738] (first compound max 1 µM, 7x7, partner max 10 µM) | 0.0067 | -0.0464 | -0.0568 | -0.0575 | -0.0592 | -0.0175 | -0.0107 | -0.0613 | -0.0515 | -0.0763 | -0.0439 | -0.0308 | -0.0263 | -0.0169 | 0.0009 | -0.0262 | -0.0709 | 0.396 | 0.602 | 0.791 |
| CCN(CCO)CCCOc1ccc2c(Nc3cc(CC(=O)Nc4cccc(F)c4)[nH]n3)ncnc2c1 [AZD2811] + O=C(c1cc(Cc2n[nH]c(=O)c3ccccc23)ccc1F)N1CCN(C(=O)C2CC2)CC1 [Olaparib] (first compound max 1 µM, 7x7, partner max 10 µM) | 0.0093 | 0.0019 | 0.0353 | -0.0785 | -0.0009 | -0.0059 | 0.0203 | -0.0102 | -0.0019 | 0.0677 | -0.0434 | 0.0076 | -0.04 | 0.0361 | 0.0029 | 0.0434 | -0.015 | 0.293 | 0.315 | 0.219 |
| CN(CCO)CC[C@H](CSc1ccccc1)Nc1ccc(S(=O)(=O)NC(=O)c2ccc(N3CCC([C@@H](O)c4ccccc4-c4ccc(Cl)cc4)CC3)cc2)cc1S(=O)(=O)C(F)(F)F [AZD4320] + CCN(CCO)CCCOc1ccc2c(Nc3cc(CC(=O)Nc4cccc(F)c4)[nH]n3)ncnc2c1 [AZD2811] (first compound max 1 µM, 7x7, partner max 1 µM) | 0.0723 | 0.0227 | 0.0354 | 0.0026 | -0.0189 | -0.0049 | -0.0338 | -0.0265 | -0.0049 | -0.0532 | -0.0438 | 0.0244 | -0.0207 | 0.0012 | -0.0481 | 0.0862 | 0.0038 | 0.829 | 0.485 | 0.275 |
| CN(CCO)CC[C@H](CSc1ccccc1)Nc1ccc(S(=O)(=O)NC(=O)c2ccc(N3CCC([C@@H](O)c4ccccc4-c4ccc(Cl)cc4)CC3)cc2)cc1S(=O)(=O)C(F)(F)F [AZD4320] + CN(C)CCCOc1ccc(-c2ccc3ncc4c(c3c2)n(C2CCOCC2)c(=O)n4C)cn1 [AZD0156] (first compound max 1 µM, 7x7, partner max 1 µM) | -0.0134 | -0.0225 | -0.005 | -0.0087 | -0.0438 | -0.0414 | 0.0099 | -0.041 | -0.0045 | -0.0636 | -0.0612 | -0.0118 | -0.0538 | -0.0601 | -0.0417 | -0.0163 | -0.0564 | 0.744 | 0.227 | 0.194 |
| CN(CCO)CC[C@H](CSc1ccccc1)Nc1ccc(S(=O)(=O)NC(=O)c2ccc(N3CCC([C@@H](O)c4ccccc4-c4ccc(Cl)cc4)CC3)cc2)cc1S(=O)(=O)C(F)(F)F [AZD4320] + C[C@@H]1COCCN1C2=NC(=NC(=C2)C3(CC3)[S@](=N)(=O)C)C4=C5C=CNC5=NC=C4 [AZD6738] (first compound max 1 µM, 7x7, partner max 10 µM) | -0.0088 | -0.0313 | 0.0112 | -0.0515 | 0.0099 | 0.0028 | -0.0108 | -0.0338 | -0.0133 | 0.0029 | -0.0471 | -0.0073 | -0.0391 | -0.0082 | -0.03 | -0.0706 | -0.0406 | 0.757 | 0.837 | 0.791 |
| CN(CCO)CC[C@H](CSc1ccccc1)Nc1ccc(S(=O)(=O)NC(=O)c2ccc(N3CCC([C@@H](O)c4ccccc4-c4ccc(Cl)cc4)CC3)cc2)cc1S(=O)(=O)C(F)(F)F [AZD4320] + C[C@@H](Nc1cc(F)cc(F)c1)c1cc(C(=O)N(C)C)cc2c(=O)cc(N3CCOCC3)oc12 [AZD8186] (first compound max 1 µM, 7x7, partner max 3 µM) | 0.0157 | 0.0037 | 0.046 | -0.0378 | 0.0162 | 0.0133 | 0.0229 | 0.0552 | 0.0866 | -0.0351 | -0.0724 | 0.08 | -0.0416 | -0.0169 | -0.0338 | 0.0425 | 0.0434 | 0.735 | 0.654 | 0.274 |
| CN(CCO)CC[C@H](CSc1ccccc1)Nc1ccc(S(=O)(=O)NC(=O)c2ccc(N3CCC([C@@H](O)c4ccccc4-c4ccc(Cl)cc4)CC3)cc2)cc1S(=O)(=O)C(F)(F)F [AZD4320] + Cc1cc2ncnn2cc1Nc1ncc2c(n1)n(C1CCOCC1)c(=O)n2C [AZD7648] (first compound max 1 µM, 7x7, partner max 10 µM) | -0.0231 | -0.0367 | -0.0086 | -0.052 | -0.0202 | -0.0402 | 0.0221 | -0.042 | 0.0363 | -0.0326 | -0.0744 | -0.0298 | -0.0153 | -0.0418 | -0.0467 | 0.0095 | -0.0234 | 0.748 | 0.321 | 0.18 |
| COc1nnc2ccc(N3CCC(c4ccc(OCCN5CCN(C)C(=O)[C@H]5C)cc4)CC3)nn12 [AZD5153] + C=CCn1c(=O)c2cnc(Nc3ccc(N4CCN(C)CC4)cc3)nc2n1-c1cccc(C(C)(C)O)n1 [AZD1775] (first compound max 1 µM, partner max 1 µM) | -0.0175 | -0.0176 | -0.0228 | -0.0279 | -0.0738 | 0.0363 | -0.0516 | -0.0347 | 0.0096 | -0.0212 | -0.105 | -0.027 | -0.0498 | -0.1 | -0.0898 | -0.0303 | -0.0265 | 0.489 | 0.835 | 0.743 |
| COc1nnc2ccc(N3CCC(c4ccc(OCCN5CCN(C)C(=O)[C@H]5C)cc4)CC3)nn12 [AZD5153] + CC1(C)CCC(CN2CCN(c3ccc(C(=O)NS(=O)(=O)c4ccc(NCC5CCOCC5)c([N+](=O)[O-])c4)c(Oc4cnc5[nH]ccc5c4)c3)CC2)=C(c2ccc(Cl)cc2)C1 [Venetoclax] (first compound max 1 µM, 7x7, partner max 1 µM) | -0.0876 | -0.0434 | -0.0461 | -0.0741 | -0.0242 | -0.0443 | 0.0439 | -0.0237 | -0.0133 | -0.009 | -0.0389 | -0.0473 | -0.0191 | -0.0246 | -0.0369 | -0.0797 | -0.0525 | 0.336 | 0.473 | 0.52 |

Reference: the supplement of paper PMC11061612
